± gives the standard deviation.
What was measured:
[1] = chemical recovery from spiked human plasma; higher = better extraction; details: pooled human plasma
[2] = chemical recovery into PDMS from spiked human plasma; higher = better extraction; details: pooled human plasma, extraction method: PES with PDMS
[3] = chemical recovery by SPE of plasma after PDMS sampling; higher = better extraction; details: pooled human plasma, extraction method: HLB SPE of plasma after PES
[4] = extraction method: SPE only (HLB 96-well)
[5] = extraction method: solvent precipitation (ACN + hexane)
[6] = extraction method: SPE only (HLB 96-well), PES comparison experiment
[7] = extraction method: PES+SPE (3 d PDMS equilibration then HLB SPE)
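For chemical recovery by SPE of plasma after PDMS sampling in this document: over 400 spiked chemicals quantified by LC-HRMS or GC-HRMS via internal standard calibration, recovery relative to spike mix added to unspiked plasma extract to correct matrix effects.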

Compound | chemical recovery [1, 4] [%] | chemical recovery [1, 5] [%] | chemical recovery into PDMS ([2]; equilibration time (d): 1) [%] | chemical recovery into PDMS ([2]; equilibration time (d): 3) [%] | chemical recovery into PDMS ([2]; equilibration time (d): 6) [%] | chemical recovery by SPE of plasma ([3]; equilibration time (d): 1) [%] | chemical recovery by SPE of plasma ([3]; equilibration time (d): 3) [%] | chemical recovery by SPE of plasma ([3]; equilibration time (d): 6) [%] | chemical recovery [1, 6] [%] | chemical recovery [1, 7] [%]
c1cc2cccc3c4cccc5cccc(c(c1)c23)c54 [Perylene] | 1.66 ± 0.56 | 64.2 ± 5.1 | 73.8 ± 6.2 | 71.9 ± 9.9 | 79.5 ± 6 | 0.65 ± 0.62 | 1.03 ± 0.53 | 1.2 ± 0.41 |  | 
Cc1ccccc1N [o-Toluidine] | 6.06 ± 3.9 | 17.2 ± 2.6 | 0.669 ± 0.41 | 0.533 ± 0.3 | 0.369 ± 0.35 | 4.67 ± 6.8 | 1.92 ± 0.63 | 1.2 ± 0.91 | 6.06 ± 5.9 | 
CC(=O)OCC(=O)[C@@]12OC3(CCCC3)O[C@@H]1C[C@H]1[C@@H]3CCC4=CC(=O)C=C[C@]4(C)[C@@]3(F)[C@@H](O)C[C@@]12C [Amcinonide] |  |  | 35.6 ± 2.6 | 38.1 ± 2.4 | 35.6 ± 2.7 | 1.91 ± 3.3 | 1.48 ± 2.6 |  | 39.5 ± 7.4 | 
CC1(C)CCC(Cc2ccc(Cl)cc2)C1(O)Cn1cncn1 (stereo not drawn) [Metconazole] |  | 74.3 ± 3.4 | 39.4 ± 2.5 | 41.9 ± 2.7 | 41.91 ± 0.15 | 2.06 ± 0.36 | 1.76 ± 0.4 | 1.11 ± 0.42 | 46.3 ± 8.6 | 
COc1ccc(C(=O)c2ccccc2)c(O)c1 [Benzophenone-3] | 28.9 ± 1.7 | 65 ± 3.6 | 35.5 ± 1.5 | 38.2 ± 2.1 | 38.6 ± 4.5 | 1.5 ± 0.48 | 1.88 ± 0.31 | 1.41 ± 0.17 | 33.1 ± 5.5 | 41.3 ± 8.9
CC(C)c1ccc(NC(=O)N(C)C)cc1 [Isoproturon] | 43.1 ± 2.7 | 74.8 ± 3.5 | 37.1 ± 2.3 | 40.1 ± 2.3 | 40.4 ± 0.94 | 5.76 ± 0.47 | 5.5 ± 0.88 | 3.08 ± 0.39 | 53.4 ± 6.7 | 46.2 ± 4.8
c1cc2ccc3cccc4ccc(c1)c2c34 [Pyrene] | 19.5 ± 5.1 |  |  | 79.6 ± 17 | 77.8 ± 20 | 4.17 ± 2.2 | 5.06 ± 1.2 | 3.59 ± 0.37 | 19.4 ± 2.8 | 
C[C@]12CC(=O)[C@H]3[C@@H](CCC4=CC(=O)CC[C@@]43C)[C@@H]1CC[C@@H]2O [11-Ketotestosterone] |  |  | 4.7 ± 9.7 |  |  | 34.3 ± 3.9 | 30.6 ± 2.7 | 21.9 ± 3.6 | 50.5 ± 4.8 | 
